Consider 13 molecules from patent US7276519B2, “Thieno[3,2-b]pyridine-6-carbonitriles and thieno[2,3-b]pyridine-5-carbonitriles as protein kinase inhibitors” (Wyeth, priority 2002, dated 2007).

Values joined by “and” are separate entries in the source; they are usually repeats but may differ in a detail not shown here. Equal values may be shown once. Read-outs that look alike come from different tables or passages of the source.

For orientation: melting point means the temperature, or range, at which the solid turns liquid. As a reminder, the IC50 is the point on the concentration scale where inhibition reaches its midpoint.

For data set [1], the target named is T1, Rat2 fibroblasts stably transformed with v-Src/Hu Lck fusion gene (Homo sapiens, UniProt P06239, cells depend on it, form not given).
T1 construct: Candidates are e.g. Schmidt-Ruppin A (P00524) or Prague C (P00526); The human Lck catalytic domain stands in place of the v-Src catalytic domain
Description: Anchorage independent Lck-transformed fibroblast proliferation assay. The class given is cell-based, rat. Conditions: Table 3; read-out: Lck Cells IC50. Put shortly: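 Rat2 fibroblasts expressing a CMV-driven v-Src/human Lck catalytic-domain fusion grown in suspension on ultra-low attachment plates, 10,000 cells/well. Compound added Day 2 as two-fold dilutions from 10 to 0.009 micromolar; MTS added Day 5, absorbance read at 490 nm. IC50 derived from blank-corrected % of no-compound control.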

The target of data set [2] is T2, Recombinant human Src enzyme (Homo sapiens, UniProt P12931).
T2 construct: purchased PanVera P3044
Kind of data set: Src kinase assay (LANCE FRET). Conditions: Table 3; 100 μM ATP, biotinylated Cdk1 peptide substrate. The data set is classed as biochemical. The method, then:
Recombinant human Src enzyme was obtained from PanVera (P3044). […] Homogeneous fluorescence resonance energy transfer kinase assays were performed using the europium/APC detection format (LANCE, Perkin Elmer). Src enzyme (10 ng) was mixed with biotinylated peptide (final concentration 2 μM), 50 mM Hepes (pH 7.5), 10 mM MgCl2, 20 μg/ml BSA, 0.001% Brij-35 (sigma), 100 μM ATP, 1% DMSO. The kinase reaction was incubated for 70 min at 37° C. The reaction was stopped with EDTA at a final concentration of 30 mM EDTA/25 mM Hepes (pH 7.5)/10 μg/ml BSA. The mixture was combined with Eu-labeled anti-phosphotyrosine antibody PT66 (Perkin Elmer, AD0068) and Streptavidin Surelight-APC (Perkin Elmer, CR130-100) in 50 mM Hepes (pH 7.5)/20 μg/ml BSA, and incubated for 30 min according to manufacturer's specifications. […] Multiple entries for a given compound indicate that it was tested multiple times.
For orientation: In TR-FRET formats the signal depends on donor and acceptor labels being close together.

Data set [3] relates to Rat2 fibroblasts stably transformed with v-Src/Hu c-Src fusion gene. Kind of data set: Anchorage independent Src-transformed fibroblast proliferation assay. The class given is cell-based, rat. How it is done:
Anchorage Independent Src-Transformed Fibroblast Proliferation Assay Rat2 fibroblasts stably transformed with a plasmid containing a CMV promotor controlled v-Src/Hu c-Src fusion gene in which the catalytic domain of human c-Src was inserted in place of the v-Src catalytic domain in the v-Src gene are used for the measurement of src dependent suspension growth. […] Multiple entries for a given compound indicate that it was tested multiple times.

Setting [4] is: Rattus norvegicus, Rat2, Table 3, read-out: Src Cells IC50 μM or % inhib at 10 μM (IC50 values).
[5] abbreviates: Table 3, read-out: Src Cells IC50 μM or % inhib at 10 μM (IC50 values).
Setting [6] is: Rattus norvegicus, Rat2, read-out: Src Cells IC50 μM or % inhib at 10 μM (IC50 values), Table 3.
[7] abbreviates: read-out: Src Cells IC50 μM or % inhib at 10 μM (IC50 values), Table 3.

T2 sequence (P12931 whole entry): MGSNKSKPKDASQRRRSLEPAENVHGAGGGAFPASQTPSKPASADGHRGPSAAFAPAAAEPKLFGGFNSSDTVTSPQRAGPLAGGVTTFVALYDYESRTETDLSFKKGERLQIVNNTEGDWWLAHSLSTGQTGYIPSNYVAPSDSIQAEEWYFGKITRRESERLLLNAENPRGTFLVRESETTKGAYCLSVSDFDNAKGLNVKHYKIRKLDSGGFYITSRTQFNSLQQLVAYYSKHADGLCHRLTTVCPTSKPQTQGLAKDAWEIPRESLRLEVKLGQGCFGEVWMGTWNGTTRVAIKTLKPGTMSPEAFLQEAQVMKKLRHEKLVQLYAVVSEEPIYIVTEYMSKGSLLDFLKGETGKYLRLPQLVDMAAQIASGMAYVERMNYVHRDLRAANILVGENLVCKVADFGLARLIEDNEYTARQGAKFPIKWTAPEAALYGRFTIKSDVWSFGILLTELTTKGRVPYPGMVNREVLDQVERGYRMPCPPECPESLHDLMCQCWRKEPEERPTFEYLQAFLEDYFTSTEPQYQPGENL
T1 sequence (P06239 whole entry, change not shown, the tested form may be a part): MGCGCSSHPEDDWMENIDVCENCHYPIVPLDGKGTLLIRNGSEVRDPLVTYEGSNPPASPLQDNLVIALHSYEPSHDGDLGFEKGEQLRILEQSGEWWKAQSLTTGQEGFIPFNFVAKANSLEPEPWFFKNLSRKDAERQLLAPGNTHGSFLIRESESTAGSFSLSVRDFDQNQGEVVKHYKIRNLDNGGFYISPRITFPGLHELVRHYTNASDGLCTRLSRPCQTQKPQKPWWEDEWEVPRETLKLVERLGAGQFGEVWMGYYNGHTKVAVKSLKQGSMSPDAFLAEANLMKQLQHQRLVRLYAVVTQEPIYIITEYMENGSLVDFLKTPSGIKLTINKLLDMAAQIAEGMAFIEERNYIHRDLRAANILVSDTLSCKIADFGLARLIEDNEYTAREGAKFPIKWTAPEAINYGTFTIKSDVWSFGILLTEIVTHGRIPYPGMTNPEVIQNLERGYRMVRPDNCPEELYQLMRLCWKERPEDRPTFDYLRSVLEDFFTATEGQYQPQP

As to `COc1cc(Nc2c(C#N)cnc3cc(-c4cccc(CN(C)C)c4)sc23)c(Cl)cc1Cl` [Example 75, 7-[(2,4-dichloro-5-methoxyphenyl)amino]-2-{3-[(dimethylamino)methyl]phenyl}thieno[3,2-b]pyridine-6-carbonitrile], the melting point lay within 204 to 206 °C. Besides, in data set [1], the GI50 is 320 nM and 270 nM. In addition, in data set [2], the 50% inhibitory concentration (IC50) was 26.3 nM and 34.7 nM. Besides, in data set [3] (setting [4]), the IC50 stood at 1.5 µM. Further, the IC50 in data set [3] (setting [5]) was 0.97 µM.

For the molecule `COc1cc(Nc2c(C#N)cnc3c(-c4ccc(CN(C)C)cc4)csc23)c(Cl)cc1Cl` [Example 141, 7-[(2,4-Dichloro-5-methoxyphenyl)amino]-3-{4-[(dimethylamino)methyl]phenyl}thieno[3,2-b]pyridine-6-carbonitrile], the melting point was in the range of 201 to 202 °C. Moreover, in data set [1], the GI50 is 3180 nM and 4240 nM. Further, in data set [2], the half-inhibitory concentration (IC50) was 4350 nM and 5040 nM. Moreover, in data set [3] (setting [4]), the IC50 came to 4.52 µM. Moreover, the IC50 in data set [3] (setting [5]) is 4.11 µM.

Turning to `COc1cc(Nc2c(C#N)cnc3cc(-c4ccc(CNCCSC)cc4)sc23)c(Cl)cc1Cl` [Example 93, 7-[(2,4-dichloro-5-methoxyphenyl)amino]-2-[4-({[2-(methylthio)ethyl]amino}methyl)phenyl]thieno[3,2-b]pyridine-6-carbonitrile], the melting point is 154 to 156 °C. The GI50 in data set [1] was 341 nM and 276 nM. Also, the IC50 in data set [2] was 15 nM and 16 nM. Also, in data set [3] (setting [4]), the half-maximal inhibitory concentration (IC50) turned out to be 1.22 µM. Further, the IC50 in data set [3] (setting [5]) came out at 0.638 µM.

In turn, `COc1cc(Nc2c(C#N)cnc3c(-c4ccc(CN5CCOCC5)cc4)csc23)c(Cl)cc1Cl` [Example 143, 7-[(2,4-dichloro-5-methoxyphenyl)amino]-3-[4-(morpholin-4-ylmethyl)phenyl]thieno[3,2-b]pyridine-6-carbonitrile] yielded a melting point of 184 to 185 °C. Also, in data set [1], the GI50 was greater than 10000 nM. For the same molecule, the IC50 in data set [2] was greater than 10000 nM. Moreover, the inhibition at 10 µM in data set [3] (Rattus norvegicus, Rat2, Table 3, at 10 μM, read-out: Src Cells IC50 μM or % inhib at 10 μM (% values)) came to 61%. Further, in data set [3] (Table 3, at 10 μM), the “Src Cells IC50 μM or % inhib at 10 μM (% values)” value is 45%.

Molecule `CCN1CCN(Cc2ccc(-c3cc4ncc(C#N)c(Nc5cc(OC)c(Cl)cc5Cl)c4s3)cc2)CC1` [Example 70, 7-[(2,4-dichloro-5-methoxyphenyl)amino]-2-{4-[(4-ethylpiperazin-1-yl)methyl]phenyl}thieno[3,2-b]pyridine-6-carbonitrile] had a melting point of 198 to 200 °C. In addition, the GI50 in data set [1] was 120 nM and 110 nM. For the same molecule, the 50% inhibitory concentration (IC50) in data set [2] is 7.3 nM and 9.2 nM. In addition, in data set [3] (setting [6]), the 50% inhibitory concentration (IC50) was 0.68 µM. For the same molecule, the concentration for half-maximal inhibition (IC50) in data set [3] (setting [7]) was found to be 0.58 µM.

Take `CCOc1cc(Nc2c(C#N)cnc3cc(-c4ccc(CN5CCN(C)CC5)cc4)sc23)c(Cl)cc1Cl` [Example 123, 7-[(2,4-dichloro-5-ethoxyphenyl)amino]-2-{4-[(4-methylpiperazin-1-yl)methyl]phenyl}thieno[3,2-b]pyridine-6-carbonitrile]: the melting point is 227 to 229 °C. In addition, the GI50 in data set [1] was 3230 nM and 4690 nM. For the same molecule, in data set [2], the IC50 is 943 nM and 1020 nM. Also, in data set [3] (setting [6]), the IC50 was greater than 10 µM.

The molecule `COc1cc(Nc2c(C#N)cnc3cc(-c4csc(CN(C)C)c4)sc23)c(Cl)cc1Cl` [Example 80, 7-[(2,4-dichloro-5-methoxyphenyl)amino]-2-{5-[(dimethylamino)methyl]thien-3-yl}thieno[3,2-b]pyridine-6-carbonitrile] yielded a melting point of 184 to 186 °C. Moreover, in data set [1], the GI50 was 74 nM and 73 nM. The half-maximal inhibitory concentration (IC50) in data set [2] was 13 nM and 14 nM. Besides, in data set [3] (setting [6]), the IC50 came out at 0.79 µM. The IC50 in data set [3] (setting [7]) was 0.58 µM.

As to `COc1cc(Nc2c(C#N)cnc3cc(-c4ccc(CN5CCSCC5)cc4)sc23)c(Cl)cc1Cl` [Example 94, 7-[(2,4-dichloro-5-methoxyphenyl)amino]-2-[4-(thiomorpholin-4-ylmethyl)phenyl]thieno[3,2-b]pyridine-6-carbonitrile], the melting point was in the range of 198 to 201 °C. Further, the GI50 in data set [1] is 932 nM and 907 nM and 1170 nM. For the same molecule, the 50% inhibitory concentration (IC50) in data set [2] was 58 nM and 46 nM. Besides, the half-inhibitory concentration (IC50) in data set [3] (setting [6]) amounted to 5.52 µM. Besides, the 50% inhibitory concentration (IC50) in data set [3] (setting [7]) is 2.92 µM and 3.17 µM.

Molecule `COc1cc(Nc2c(C#N)cnc3cc(-c4ccc(CCN(C)C)cc4)sc23)c(Cl)cc1Cl` [Example 134, 7-[(2,4-dichloro-5-methoxyphenyl)amino]-2-{4-[2-(dimethylamino)ethyl]phenyl}thieno[3,2-b]pyridine-6-carbonitrile] yielded a melting point of 196 to 197 °C. Besides, in data set [1], the GI50 was 130 nM and 170 nM. Further, the half-inhibitory concentration (IC50) in data set [2] was 7.6 nM and 10 nM. Besides, the half-inhibitory concentration (IC50) in data set [3] (setting [6]) was determined as 0.505 µM. For the same molecule, in data set [3] (setting [7]), the half-maximal inhibitory concentration (IC50) worked out at 0.337 µM.

On to `COc1cc(Nc2c(C#N)cnc3cc(-c4ccc(CN5CC[S+]([O-])CC5)cc4)sc23)c(Cl)cc1Cl` [Example 105, 7-[(2,4-dichloro-5-methoxyphenyl)amino]-2-{4-[(1-oxidothiomorpholin-4-yl)methyl]phenyl}thieno[3,2-b]pyridine-6-carbonitrile], for which the melting point fell in the range of 242 to 245 °C. For the same molecule, the GI50 in data set [1] was 222 nM and 235 nM. Further, the IC50 in data set [2] is 8.5 nM and 7 nM. The IC50 in data set [3] (setting [4]) came out at 0.473 µM. For the same molecule, the concentration for half-maximal inhibition (IC50) in data set [3] (setting [5]) is 0.55 µM.

Turning to `COc1cc(Nc2c(C#N)cnc3cc(-c4ccc(C(=O)N5CCN(C)CC5)cc4)sc23)c(Cl)cc1Cl` [Example 117, 7-[(2,4-dichloro-5-methoxyphenyl)amino]-2-{4-[(4-methylpiperazin-1-yl)carbonyl]phenyl}thieno[3,2-b]pyridine-6-carbonitrile], the melting point is 240 to 243 °C (dec.). In addition, the GI50 in data set [1] was 129 nM and 171 nM. Further, the IC50 in data set [2] was 15 nM and 11 nM. Moreover, the IC50 in data set [3] (setting [6]) was found to be 0.388 µM. Further, the concentration for half-maximal inhibition (IC50) in data set [3] (setting [7]) was determined as 0.274 µM.

`COc1cc(Nc2c(C#N)cnc3cc(-c4ccc(CN5CCN(C)CC5)cn4)sc23)c(Cl)cc1Cl` [Example 103, 7-[(2,4-dichloro-5-methoxyphenyl)amino]-2-{5-[(4-methylpiperazin-1-yl)methyl]pyridin-2-yl}thieno[3,2-b]pyridine-6-carbonitrile] yielded a melting point of 229 to 232 °C. In data set [1], the GI50 was 58 nM and 71 nM. The IC50 in data set [2] is 11 nM and 9.6 nM. Further, in data set [3] (setting [4]), the half-inhibitory concentration (IC50) was found to be 0.401 µM. In data set [3] (setting [5]), the IC50 came to 0.445 µM.

The molecule `CCCCNCc1ccc(-c2cc3ncc(C#N)c(Nc4cc(OC)c(Cl)cc4Cl)c3s2)cc1` [Example 104, 2-{4-[(butylamino)methyl]phenyl}-7-[(2,4-dichloro-5-methoxyphenyl)amino]thieno[3,2-b]pyridine-6-carbonitrile] gave a melting point of 167 to 169 °C. Also, in data set [1], the GI50 is 252 nM and 235 nM. Also, in data set [2], the half-maximal inhibitory concentration (IC50) is 10 nM and 12 nM. Further, the 50% inhibitory concentration (IC50) in data set [3] (setting [4]) turned out to be 0.837 µM. The half-maximal inhibitory concentration (IC50) in data set [3] (setting [5]) stood at 0.939 µM.
